In series [1] the test system is TZM-bl cell line. The following applies: cited from earlier work.
Series [2] has as its system HIV-1 RTMDR. Kind of series: Multi-RTI-resistant HIV-1 RTMDR infection in TZM-bl cell line. Format: cell-based. Conditions: Human immunodeficiency virus 1, TZM-bl.
Series [3] deals with MT-2 cells. Conditions: cited from earlier work.
The subject of series [4] is HIV-1 NL4-3. Conditions: NL4-3 in TZM-bl cell line; starred compounds, data were reported in ref [11]; cited from earlier work.
Series [5] relates to HIV-1 IIIB. The following applies: cited from earlier work.
Series [6] concerns HIV-1 IIIB. Kind of series: Inhibition of HIV-1 IIIB replication in MT-2 cells. It counts as cell-based. The following applies: Human immunodeficiency virus 1, IIIB.
Series [7] deals with HIV-1 NL4-3. Kind of series: in vitro. Format: cell-based. The following applies: for EC50: Human immunodeficiency virus 1, NL43, TZM-bl.
For series [8], the system named is HIV-1 A17 (K103N/Y181C). The experiment in a line: Multi-RTI-resistant HIV-1 A17 replication in MT-2 cells. The following applies: Human immunodeficiency virus 1, MT2. It counts as cell-based.
Where [9] appears, read: TZM-bl cell line, XTT assay, starred compounds, data were reported in ref [11].
Setting [10] is: MT-2 cell line, XTT assay, starred compounds, data were reported in ref [11].
The mark [11] stands for this setting: IIIB in MT-2 cell line, starred compounds, data were reported in ref [11].

Like-named read-outs stand apart in the source and are kept apart here. Bounds are passed on as bounds.

Results on 17 compounds are retold here after publication PMC3050082 (Journal of medicinal chemistry, 2010).

Broadly, the CC50 is the concentration at which the toxic effect on the cells reaches its halfway point. A word on the EC50: it is the concentration needed to bring the measured effect to its halfway point. As to `Cc1cc(I)cc(C)c1Oc1ccc([N+](=O)[O-])c(Nc2ccc(C#N)cc2)n1` [11a, N^2-(4′-Cyanophenyl)-6-(2″,6″-dimethyl-4″-iodo)phenoxy-3-nitropyridin-2-amine], the CC50 is over 41.1 µM in series [1] (setting [9]) and 22.9 µM in series [3] (setting [10]). Besides, the EC50 in series [2] was 94.3 ± 9 nM; in series [4], 60.7 ± 24 nM; in series [5] (setting [11]), 79 ± 2 nM. Also, the “SI (selective index = CC50/EC50)” value is over 675 in series [4] and 283 in series [5] (setting [11]).

Consider `Cc1cc(C#CC(C)(C)O)cc(C)c1Oc1ccc([N+](=O)[O-])c(Nc2ccc(C#N)cc2)n1` [11d, N-(4′-Cyanophenyl)-6-[2″,6″-dimethyl-4″-(3-methylbut-3-ol-1-yn)phenoxy]-3-nitropyridin-2-amine], for which the CC50 in series [1] is 45.2 µM; in series [3] it was 23.3 µM. For the same compound, the “SI (selective index = CC50/EC50)” value in series [4] is listed as 1.09; in series [5], 2.61.

The compound `Cc1cc(C#CC2CC2)cc(C)c1Oc1ccc([N+](=O)[O-])c(Nc2ccc(C#N)cc2)n1` [11e, N-(4′-Cyanophenyl)-6-[4″-(2-cyclopropylethynyl)-2″,6″-dimethyl]phenoxy-3-nitro-pyridin-2-amine] displayed an EC50 in series [6] (MT2, IIIB in MT-2 cell line) of over 3000 nM.

Regarding `C#Cc1cc(C)c(Oc2ccc([N+](=O)[O-])c(Nc3ccc(C#N)cc3)n2)c(C)c1` [11f, N^2-(4′-Cyanophenyl)-6-(2″,6″-dimethyl-4″-ethynyl)phenoxy-3-nitropyridin-2-amine], the values for the CC50 in series [1] (setting [9]) and in series [3] (setting [10]) were over 52.1 µM and over 100 µM, respectively. In addition, the EC50 in series [2] is 215 ± 33 nM; in series [4], 111 ± 86 nM; in series [5] (setting [11]) it was 247 ± 40 nM. Also, the “SI (selective index = CC50/EC50)” value in series [4] is on record as over 469; in series [5] (setting [11]) it was over 405.

`Cc1cc(/C=C/C#N)cc(C)c1Oc1ccc([N+](=O)[O-])c(Nc2ccc(C#N)cc2)n1` [11m, (E)-N-(4′-Cyanophenyl)-6-(4″-cyanovinyl-2″,6″-dimethyl)phenoxy-3-nitropyridin-2-amine] displayed a concentration for a half-maximal effect (EC50) in series [2] of 14.8 ± 2.4 nM.

For `Cc1cc(/C=C/C#N)cc(C)c1Oc1ccc([N+](=O)[O-])c(Nc2ccc(C#N)cc2)c1` [12c, (E)-N^2-(4′-Cyanophenyl)-4-(4″-cyanovinyl-2″,6″-dimethyl)phenoxy-1-nitroaniline], in series [7] (human), the selectivity ratio is over 4690.

On to `Cc1cc(I)cc(C)c1Oc1ccc(N)c(Nc2ccc(C#N)cc2)n1` [13a, N^2-(4′-Cyanophenyl)-6-(2″,6″-dimethyl-4″-iodo)phenoxypyridin-2,3-diamine], for which the CC50 in series [1] (setting [9]) is 16.7 µM; in series [3] (setting [10]), 7.24 µM. The concentration for a half-maximal effect (EC50) in series [2] is 5.13 ± 1.15 nM; in series [4], 7.6 ± 2.3 nM; in series [5] (setting [11]) it was 54 ± 4 nM. Also, the entries for the “SI (selective index = CC50/EC50)” value in series [4] and in series [5] (setting [11]) were 2200 and 134, respectively.

Regarding `C=CCc1cc(C)c(Oc2ccc(N)c(Nc3ccc(C#N)cc3)n2)c(C)c1` [13c, 6-(4″-Allyl-2″,6″-dimethyl)phenoxy-N^2-(4′-cyanophenyl)pyridin-2,3-diamine], the EC50 in series [2] was 15.4 ± 1.6 nM.

Turning to `Cc1cc(C#CC(C)(C)O)cc(C)c1Oc1ccc(N)c(Nc2ccc(C#N)cc2)n1` [13d, N^2-(4′-Cyanophenyl)-6-[2″,6″-dimethyl-4″-(3-methylbut-3-ol-1-yn)phenoxy]pyridin-2,3-di amine], the CC50 in series [1] is 8.73 µM; in series [3], 3.54 µM. Moreover, the results for the EC50 in series [4] and in series [5] (setting [11]) were 241 ± 14.7 nM and 1580 ± 97 nM, respectively. Moreover, the figures for the “SI (selective index = CC50/EC50)” value in series [4] and in series [5] were 36 and 2.25, respectively.

In the case of `Cc1cc(C#CC2CC2)cc(C)c1Oc1ccc(N)c(Nc2ccc(C#N)cc2)n1` [13e, N^2-(4′-Cyanophenyl)-6-[4″-(2-cyclopropylethynyl)-2″,6″-dimethylphenoxy]pyridin-2,3-diamine], the EC50 in series [2] is 121 ± 17.7 nM; in series [8], over 10000 nM.

As for `C#Cc1cc(C)c(Oc2ccc(N)c(Nc3ccc(C#N)cc3)n2)c(C)c1` [13f, N^2-(4′-Cyanophenyl)-6-(2″,6″-dimethyl-4″-ethynyl)phenoxypyridin-2,3-diamine], the figures for the CC50 in series [1] (setting [9]) and in series [3] (setting [10]) were 9.94 µM and 9.28 µM, respectively. The EC50 in series [2] is 9 ± 2 nM; in series [8] it was 1430 ± 260 nM; in series [4], 6.7 ± 1 nM. Moreover, the entries for the “SI (selective index = CC50/EC50)” value in series [4] and in series [5] (setting [11]) were 1484 and 221, respectively.

`CC(=O)CCc1cc(C)c(Oc2ccc(N)c(Nc3ccc(C#N)cc3)n2)c(C)c1` [13k, 6-[(4″-Butan-2-one)-2″,6″-dimethyl]phenoxy-N^2-(4′-cyanophenyl)pyridin-2,3-diamine]: the figures for the EC50 in series [2] and in series [8] were 3.2 ± 0.8 nM and 730 ± 58 nM, respectively.

Regarding `Cc1cc(/C=C/C#N)cc(C)c1Oc1ccc(N)c(Nc2ccc(C#N)cc2)n1` [13m, (E)-N^2-(4′-Cyanophenyl)-6-(4″-cyanovinyl-2″,6″-dimethyl)phenoxypyridin-2,3-diamine], the results for the EC50 in series [2] and in series [8] were 0.59 ± 0.09 nM and 200 ± 10 nM, respectively.

For `Cc1cc(C#N)cc(C)c1Oc1ccc(N)c(Nc2ccc(C#N)cc2)n1` [compound 3, reference compound], the EC50 in series [2] was found to be 0.96 ± 0.3 nM; in series [7] (NL4-3 in TZM-bl cell line) it was 0.68 ± 0.03 nM.

Take `N#Cc1ccc(Nc2cc(Oc3ccc4cc(C#N)ccc4c3)c([N+](=O)[O-])cc2[N+](=O)[O-])cc1` [compound 17, 5-(6-Cyano-2-naphthoxy)-N^1-(4′-cyanophenyl)-2,4-dinitroaniline]: the EC50 in series [7] and in series [6] (MT2) was over 100 nM each time.

Regarding `N#Cc1ccc(Nc2cc(Oc3ccc4cc(C#N)ccc4c3)c([N+](=O)[O-])cc2N)cc1` [compound 19, 4-(6-Cyano-2-naphthoxy)-N^2-(4′-cyanophenyl)-5-nitrobenzene-1,2-diamine], the EC50 is over 100 nM in series [7] (NL4-3 in TZM-bl cell line) and over 100 nM in series [6] (MT2, IIIB in MT-2 cell line).

For `N#Cc1ccc(Nc2cc([N+](=O)[O-])c(Oc3ccc4cc(C#N)ccc4c3Br)cc2N)cc1` [compound 20, 4-(1-Bromo-6-cyano-2-naphthoxy)-N^1-(4′-cyanophenyl)-5-nitrobenzene-1,2-diamine], the EC50 in series [7] (NL4-3 in TZM-bl cell line) is over 100 nM; in series [6] (MT2, IIIB in MT-2 cell line), over 100 nM.
